Columns and labels:
[1] = compound: COc1cccc(OCCCN)c1-c1cc(Nc2cnc(C#N)cn2)n[nH]1 [Prexasertib]; details: max 1 µM
In short: (§1)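 Cancer cell lines in 1536-well plates (7.5 μl DMEM/F12 or RPMI, 10% FBS) were held 24 hours at 37°C and 5% CO2 and then dosed for 72 hours at a final DMSO of typically 0.2%. Viability was taken from CellTiter-Glo 2.0 luminescence, scaled between blank-well and DMSO-well means. Curves were fitted as two-parameter logistic models with a non-linear mixed effects model, from which the single-agent IC50 was taken.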

[2] = compound: C[C@@H](c1ccc2nccn2c1)n1nnc2ncc(-c3cnn(C)c3)nc21 [Savolitinib]; details: max 1 µM
In short: as §1

[3] = compound: COc1cc2ncnc(Nc3ccc(F)c(Cl)c3)c2cc1OCCCN1CCOCC1 [Gefitinib]; details: max 10 µM
In short: as §1

[4] = compound: NC1(c2ccc(-c3nc4ccn5c(=O)[nH]nc5c4cc3-c3ccccc3)cc2)CCC1 [MK-2206]; details: max 10 µM
In short: as §1

[5] = compound: Cc1cc2ncnn2cc1Nc1ncc2c(n1)n(C1CCOCC1)c(=O)n2C [AZD7648]; details: max 10 µM
In short: as §1

[6] = compound: CC1=C(C(=CC=C1)Cl)NC(=O)C2=CN=C(S2)NC3=CC(=NC(=N3)C)N4CCN(CC4)CCO [Dasatinib]; details: max 2 µM
In short: as §1

[7] = compound: COc1nnc2ccc(N3CCC(c4ccc(OCCN5CCN(C)C(=O)[C@H]5C)cc4)CC3)nn12 [AZD5153]; details: max 1 µM
In short: as §1

[8] = compound: C[C@@H](Nc1cc(F)cc(F)c1)c1cc(C(=O)N(C)C)cc2c(=O)cc(N3CCOCC3)oc12 [AZD8186]; details: max 10 µM
In short: as §1

[9] = compound: O=C(c1cc(Cc2n[nH]c(=O)c3ccccc23)ccc1F)N1CCN(C(=O)C2CC2)CC1 [Olaparib]; details: max 10 µM
In short: as §1

[10] = compound: CN(CC[C@H](CSC1=CC=CC=C1)NC2=C(C=C(C=C2)S(=O)(=O)NC(=O)C3=CC=C(C=C3)N4CCC(CC4)[C@H](C5=CC=CC=C5C6=CC=C(C=C6)Cl)O)S(=O)(=O)C(F)(F)F)CCO [AZD4320]; details: max 1 µM
In short: as §1

[11] = compound: CC(=O)c1c(C)c2cnc(Nc3ccc(N4CCNCC4)cn3)nc2n(C2CCCC2)c1=O [Palbociclib]; details: max 10 µM
In short: as §1

[12] = compound: CC(C)n1c(=O)n(C)c2cnc3cc(F)c(-c4ccc(OCCCN5CCCCC5)nc4)cc3c21 [AZD1390]; details: max 0.3 µM
In short: as §1

[13] = compound: C1CC(C1)(C(=O)[O-])C(=O)[O-].N.N.[Pt+2] [Carboplatin]; details: max 10 µM
In short: as §1

[14] = compound: CS(=O)(=O)CCNCc1ccc(-c2ccc3ncnc(Nc4ccc(OCc5cccc(F)c5)c(Cl)c4)c3c2)o1 [Lapatinib]; details: max 10 µM
In short: as §1

[15] = compound: Nc1ccn([C@@H]2O[C@H](CO)[C@@H](O)C2(F)F)c(=O)n1 [Gemcitabine]; details: max 0.3 µM
In short: as §1

[16] = compound: COc1cccc2c1C(=O)c1c(O)c3c(c(O)c1C2=O)C[C@@](O)(C(=O)CO)C[C@@H]3O[C@H]1C[C@H](N)[C@H](O)[C@H](C)O1 [Doxorubicin]; details: max 1 µM
In short: as §1

[17] = compound: CC(=O)O[C@H]1C(=O)[C@@]2(C)[C@H]([C@H](OC(=O)c3ccccc3)[C@]3(O)C[C@H](OC(=O)[C@H](O)[C@@H](NC(=O)c4ccccc4)c4ccccc4)C(C)=C1C3(C)C)[C@]1(OC(C)=O)CO[C@@H]1C[C@@H]2O [Paclitaxel]; details: max 3 µM
In short: as §1

[18] = compound: COc1cc(Nc2ncc3c(n2)-c2ccc(Cl)cc2C(c2c(F)cccc2OC)=NC3)ccc1C(=O)O [Alisertib]; details: max 10 µM
In short: as §1

[19] = compound: CN(C)CCCOc1ccc(-c2ccc3ncc4c(c3c2)n(C2CCOCC2)c(=O)n4C)cn1 [AZD0156]; details: max 3 µM
In short: as §1

[20] = compound: C1CN(CCC1(C(=O)N[C@@H](CCO)C2=CC=C(C=C2)Cl)N)C3=NC=NC4=C3C=CN4 [AZD5363]; details: max 10 µM
In short: as §1

[21] = compound: O=c1[nH]cc(F)c(=O)[nH]1 [5-Fluorouracil]; details: max 20 µM
In short: as §1

[22] = compound: C[C@@H]1COCCN1C2=NC(=NC(=C2)C3(CC3)[S@](=N)(=O)C)C4=C5C=CNC5=NC=C4 [AZD6738]; details: max 10 µM
In short: as §1

[23] = compound: CC(=O)Nc1cccc(-n2c(=O)n(C3CC3)c(=O)c3c(Nc4ccc(I)cc4F)n(C)c(=O)c(C)c32)c1 [Trametinib]; details: max 1 µM
In short: as §1

[24] = compound: Cc1nc(-c2cn3c(n2)-c2ccc(-c4cnn(C(C)(C)C(N)=O)c4)cc2OCC3)n(C(C)C)n1 [Taselisib]; details: max 10 µM
In short: as §1

[25] = compound: C=CCn1c(=O)c2cnc(Nc3ccc(N4CCN(C)CC4)cc3)nc2n1-c1cccc(C(C)(C)O)n1 [AZD1775]; details: max 3 µM
In short: as §1

[26] = compound: CCc1c2c(nc3ccc(O)cc13)-c1cc3c(c(=O)n1C2)COC(=O)[C@]3(O)CC [SN-38]; details: max 0.3 µM
In short: as §1

[27] = compound: N#Cc1cnc(Nc2cc(NC[C@H]3CNCCO3)c(C(F)(F)F)cn2)cn1 [SRA737]; details: max 10 µM
In short: as §1

[28] = compound: C[C@@H](Oc1cc(-c2cnn(C3CCNCC3)c2)cnc1N)c1c(Cl)ccc(F)c1Cl [Crizotinib]; details: max 10 µM
In short: as §1

[29] = compound: O=C(Nc1ccc2[nH]nc(-c3ccncc3)c2c1)[C@@H]1CCN(CC(=O)N2CCN(c3ccc(-c4ncccn4)cc3)CC2)C1; details: max 5 µM
In short: as §1

[30] = compound: CC1(C)CCC(CN2CCN(c3ccc(C(=O)NS(=O)(=O)c4ccc(NCC5CCOCC5)c([N+](=O)[O-])c4)c(Oc4cnc5[nH]ccc5c4)c3)CC2)=C(c2ccc(Cl)cc2)C1 [Venetoclax]; details: max 1 µM
In short: as §1

[31] = compound: Cn1cnc2c(F)c(Nc3ccc(Br)cc3Cl)c(C(=O)NOCCO)cc21 [Selumetinib]; details: max 10 µM
In short: as §1

[32] = compound: CCN(CCO)CCCOc1ccc2c(Nc3cc(CC(=O)Nc4cccc(F)c4)[nH]n3)ncnc2c1 [AZD2811]; details: max 1 µM
In short: as §1

[33] = compound: CC1=CN2[C@@H](C1)C=NC3=CC(=C(C=C3C2=O)OC)OCCCCCOC4=C(C=C5C(=C4)N=C[C@@H]6CC(=CN6C5=O)C)OC [SG3199]; details: max 0.001 µM
In short: as §1

[34] = compound: Cc1c2c(nn1C)CSCc1cc(n(C)n1)CSc1cc(c3ccccc3c1)OCCCc1c(C(=O)O)n(C)c3c-2c(Cl)ccc13 [AZD5991]; details: max 1 µM
In short: as §1

[35] = compound: COc1cc([C@@H]2c3cc4c(cc3[C@@H](O[C@@H]3O[C@@H]5CO[C@@H](C)O[C@H]5[C@H](O)[C@H]3O)[C@H]3COC(=O)[C@H]23)OCO4)cc(OC)c1O [Etoposide]; details: max 10 µM
In short: as §1

| Cell Line | IC50, cell viability 72 h [1] [nM] | IC50, cell viability 72 h [2] [nM] | IC50, cell viability 72 h [3] [nM] | IC50, cell viability 72 h [4] [nM] | IC50, cell viability 72 h [5] [nM] | IC50, cell viability 72 h [6] [nM] | IC50, cell viability 72 h [7] [nM] | IC50, cell viability 72 h [8] [nM] | IC50, cell viability 72 h [9] [nM] | IC50, cell viability 72 h [10] [nM] | IC50, cell viability 72 h [11] [nM] | IC50, cell viability 72 h [12] [nM] | IC50, cell viability 72 h [13] [nM] | IC50, cell viability 72 h [14] [nM] | IC50, cell viability 72 h [15] [nM] | IC50, cell viability 72 h [16] [nM] | IC50, cell viability 72 h [17] [nM] | IC50, cell viability 72 h [18] [nM] | IC50, cell viability 72 h [19] [nM] | IC50, cell viability 72 h [20] [nM] | IC50, cell viability 72 h [21] [nM] | IC50, cell viability 72 h [22] [nM] | IC50, cell viability 72 h [23] [nM] | IC50, cell viability 72 h [24] [nM] | IC50, cell viability 72 h [25] [nM] | IC50, cell viability 72 h [26] [nM] | IC50, cell viability 72 h [27] [nM] | IC50, cell viability 72 h [28] [nM] | IC50, cell viability 72 h [29] [nM] | IC50, cell viability 72 h [30] [nM] | IC50, cell viability 72 h [31] [nM] | IC50, cell viability 72 h [32] [nM] | IC50, cell viability 72 h [33] [nM] | IC50, cell viability 72 h [34] [nM] | IC50, cell viability 72 h [35] [nM] |
| --- | --- | --- | --- | --- | --- | --- | --- | --- | --- | --- | --- | --- | --- | --- | --- | --- | --- | --- | --- | --- | --- | --- | --- | --- | --- | --- | --- | --- | --- | --- | --- | --- | --- | --- | --- |
| SW1710 (Bladder Carcinoma) | 86.4 | > 1000 | > 10000 | > 10000 | > 10000 | 190 | > 1000 | > 10000 | > 10000 | > 1000 | > 10000 | > 300 | > 10000 | > 10000 | > 300 | > 1000 | 15.1 | > 10000 | > 3000 | > 10000 | > 20000 | > 10000 | > 1000 | > 10000 | > 3000 | > 300 | > 10000 | > 10000 | > 5000 | > 1000 | > 10000 | > 1000 | > 1 | > 1000 | > 10000 |
| TGBC1TKB (Biliary Tract Carcinoma) | > 1000 | > 1000 | > 10000 | > 10000 | > 10000 | > 2000 | > 1000 | > 10000 | > 10000 | > 1000 | > 10000 | > 300 | > 10000 | > 10000 | > 300 | > 1000 | 969 | > 10000 | > 3000 | > 10000 | > 20000 | > 10000 | > 1000 | > 10000 | > 3000 | > 300 | > 10000 | > 10000 | > 5000 | > 1000 | > 10000 | > 1000 | > 1 | > 1000 | > 10000 |
| WSU-NHL (B-Cell Non-Hodgkin's Lymphoma) | 15.2 | > 1000 | > 10000 | 543 | > 10000 | 12.6 | 45.9 | 397 | 7070 | 81.4 | 1280 | > 300 | > 10000 | 9550 | 5.25 | 14.2 | < 3 | 73.6 | > 3000 | 809 | 5460 | 998 | > 1000 | 70.5 | 410 | 2.41 | 2310 | 4520 | > 5000 | 64.2 | > 10000 | 134 | > 1 | 321 | 160 |
| YAPC (Pancreatic Carcinoma) | 641 | > 1000 | > 10000 | > 10000 | > 10000 | > 2000 | > 1000 | > 10000 | > 10000 | > 1000 | > 10000 | > 300 | > 10000 | > 10000 | 212 | > 1000 | > 3000 | > 10000 | > 3000 | > 10000 | > 20000 | > 10000 | > 1000 | > 10000 | > 3000 | 113 | > 10000 | > 10000 | > 5000 | > 1000 | > 10000 | > 1000 | > 1 | > 1000 | > 10000 |

From the supplement of paper PMC11061612
